Test results published in PMC9100673, “Acridine Based N-Acylhydrazone Derivatives as Potential Anticancer Agents: Synthesis, Characterization and ctDNA/HSA Spectroscopic Binding Properties” (Molecules, 2022).

Legend:
[1] = biological target: T1, human serum albumin (HSA) (Homo sapiens, UniProt P02768); assay: HSA fluorescence quenching (steady-state fluorescence titration); assay type: binding; conditions: for KSV, Stern–Volmer quenching constant: HSA 4 μM, pH 7.4; for ΔH / ΔS: van't Hoff plot, 25–35 °C; for blue shift of HSA fluorescence emission maximum: λex 280 nm
T1 construct: purchased Sigma (St. Louis, MO, USA)
T1 sequence (P02768 25-609): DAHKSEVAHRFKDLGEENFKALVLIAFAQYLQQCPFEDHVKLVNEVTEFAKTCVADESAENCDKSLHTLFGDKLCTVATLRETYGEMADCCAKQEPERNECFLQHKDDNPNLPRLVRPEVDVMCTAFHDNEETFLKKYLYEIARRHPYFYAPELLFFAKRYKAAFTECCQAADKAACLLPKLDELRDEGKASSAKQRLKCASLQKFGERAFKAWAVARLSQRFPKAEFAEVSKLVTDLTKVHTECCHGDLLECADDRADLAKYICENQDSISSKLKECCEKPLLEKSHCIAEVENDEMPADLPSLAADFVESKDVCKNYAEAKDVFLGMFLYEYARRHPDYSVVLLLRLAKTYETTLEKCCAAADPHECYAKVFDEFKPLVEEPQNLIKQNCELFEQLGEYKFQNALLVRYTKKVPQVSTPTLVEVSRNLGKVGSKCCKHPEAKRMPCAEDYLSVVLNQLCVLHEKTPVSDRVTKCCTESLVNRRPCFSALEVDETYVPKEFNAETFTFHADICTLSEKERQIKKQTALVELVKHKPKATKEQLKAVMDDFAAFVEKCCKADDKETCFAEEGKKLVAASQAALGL
Method: Human serum albumin (HSA) emission spectra were recorded in the absence and presence of different amounts of acridine derivatives (3a–3d) at a range of 285 to 550 nm upon excitation at 280 nm. The emission maximum of fluorescence intensity of HSA was identified at 340 nm. […] The fluorescence intensity of HSA in the presence of the acridine derivatives decreases in the relation […], with decreases of 58%, 51%, 43% and 38%, respectively. Moreover, the reduction of fluorescence emission of HSA by derivatives 3a–3d was accompanied by an apparent change in the position of the maximum wavelength of the fluorescence emission, with a blue shift of 6 nm (3d) ≈ (3b) < 7 nm (3c) < 8 nm (3a).
The appearance of an isoactinic point at 430 nm might also indicate the existence of an equilibrium between bound and free drugs, with the presence of such an equilibrium possibly emphasizing the formation of the drug–protein complex. Fluorescence quenching can be divided into the two processes of dynamic and static quenching. In dynamic quenching, the fluorophore and quencher are in contact in an excited state, increasing the temperature and resulting in faster diffusion and a higher frequency of collision, which in turn increases the quenching constant. In comparison, static quenching is typical in complexes formed between the fluorophore and quencher in a ground state in which the increasing temperature weakens the stability of the complex. Quantitative analysis was performed by using the Stern–Volmer Equation (1):(1) F0/F=1+KSVQ=1+Kqτ0Q, where F0 and F represent the fluorescence intensity of HSA in the absence and presence of acridine derivatives, respectively. KSV is the Stern–Volmer dynamic quenching constant which was determined from the plot of relative intensity F0/F of fluorescence vs. the concentration of the acridine derivative. Kq is the quenching rate constant of biomolecules, which is known to be around 2.0 × 10^10 M^−1 s^−1, and τ0 is the average lifetime of the fluorophore in the absence of the quencher, with a typical value equal to around 10^−8 for biomolecules. The quenching constant KSV of derivatives 3a–3d were of 10^5 M^−1. The KSV values recorded for derivatives 3a and 3b decreased at increasing temperatures, while those of derivatives 3c and 3d increased at increasing temperatures. The increased KSV values at increasing temperature in the presence of derivative 3c may indicate that the binding forces are mainly hydrophobic (endothermic apolar interactions are strengthened at increasing temperatures). Additionally, the Kq values obtained for HSA of 10^13 M^−1 s^−1 are greater than the limiting diffusion rate constant of diffusional quenching for biopolymers (2.0 × 10^10 M^−1 s^−1).
In order to evaluate the magnitude of the interaction, other parameters such as the binding constant ( Kb) and the number of binding sites (n) on the drug–HSA complex were calculated at three temperatures using Equation (2):(2) logF0−F/F=logKb+nlogQ, where F0 and F are the fluorescence intensity of the fluorophore (HSA) in the absence and presence of the quencher-acridine derivative, and [Q] is the quencher concentration. The values of Kb and n were determined using the linear regression of a plot of log(F0 − F/F) to log[Q] (Figure S3). […] Since the values of Kb were 10^5 M^−1 (3a–3c) or 10^4 M^−1 (3d), it would therefore be suitable for distribution in the plasma in vivo.
Based on the Kb dependency on temperature, it is, therefore, possible to analyse the temperature-dependent thermodynamic parameters which can be considered as responsible for the formation of a complex. […]

[2] = biological target: hTopo IIα (Homo sapiens, UniProt P11388); assay: Topo IIα kDNA decatenation assay; assay type: biochemical; conditions: 25, 50 and 100 μM
hTopo IIα, sequence (P11388 whole entry): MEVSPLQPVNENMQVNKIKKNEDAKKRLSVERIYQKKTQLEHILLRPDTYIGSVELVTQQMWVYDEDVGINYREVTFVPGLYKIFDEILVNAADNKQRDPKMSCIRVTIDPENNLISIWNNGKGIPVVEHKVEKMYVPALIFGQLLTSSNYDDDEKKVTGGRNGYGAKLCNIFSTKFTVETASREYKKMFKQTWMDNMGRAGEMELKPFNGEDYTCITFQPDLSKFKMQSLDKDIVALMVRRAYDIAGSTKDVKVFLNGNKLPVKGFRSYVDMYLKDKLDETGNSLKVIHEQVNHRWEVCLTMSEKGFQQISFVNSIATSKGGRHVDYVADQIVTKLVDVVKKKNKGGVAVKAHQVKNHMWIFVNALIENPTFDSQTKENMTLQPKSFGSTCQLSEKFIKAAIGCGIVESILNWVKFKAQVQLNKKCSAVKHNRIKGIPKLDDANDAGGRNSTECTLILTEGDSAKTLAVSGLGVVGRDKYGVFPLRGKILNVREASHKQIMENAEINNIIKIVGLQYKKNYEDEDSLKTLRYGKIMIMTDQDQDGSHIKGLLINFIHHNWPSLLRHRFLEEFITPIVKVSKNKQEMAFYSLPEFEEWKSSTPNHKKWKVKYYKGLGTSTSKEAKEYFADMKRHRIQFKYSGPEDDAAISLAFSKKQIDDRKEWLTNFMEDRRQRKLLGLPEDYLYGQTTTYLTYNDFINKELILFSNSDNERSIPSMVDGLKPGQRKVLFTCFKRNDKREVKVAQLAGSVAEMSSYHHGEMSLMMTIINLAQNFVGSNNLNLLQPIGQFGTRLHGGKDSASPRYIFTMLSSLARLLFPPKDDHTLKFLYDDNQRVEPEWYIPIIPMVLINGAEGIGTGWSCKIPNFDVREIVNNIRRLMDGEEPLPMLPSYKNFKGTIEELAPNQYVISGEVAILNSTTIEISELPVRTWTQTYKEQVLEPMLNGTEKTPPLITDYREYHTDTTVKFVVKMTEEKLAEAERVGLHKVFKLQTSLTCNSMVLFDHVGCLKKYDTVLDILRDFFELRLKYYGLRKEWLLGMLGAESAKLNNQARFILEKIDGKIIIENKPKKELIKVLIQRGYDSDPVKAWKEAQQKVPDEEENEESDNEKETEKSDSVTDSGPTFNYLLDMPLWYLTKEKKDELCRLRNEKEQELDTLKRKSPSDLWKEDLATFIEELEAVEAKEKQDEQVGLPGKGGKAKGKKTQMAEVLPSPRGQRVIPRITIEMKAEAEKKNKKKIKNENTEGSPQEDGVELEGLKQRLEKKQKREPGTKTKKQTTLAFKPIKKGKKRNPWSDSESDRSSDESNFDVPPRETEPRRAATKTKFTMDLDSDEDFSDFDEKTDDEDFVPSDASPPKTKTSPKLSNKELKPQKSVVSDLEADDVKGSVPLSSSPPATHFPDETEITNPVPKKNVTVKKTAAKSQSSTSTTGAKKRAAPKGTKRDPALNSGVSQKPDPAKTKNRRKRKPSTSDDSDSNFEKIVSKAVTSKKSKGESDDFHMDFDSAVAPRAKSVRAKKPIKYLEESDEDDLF
Method: The Topo IIα enzyme catalysed the decatenation of catenated kDNA to closed circular decatenated kDNA. In one specific case, linear (L) and nicked-opened (NC) forms of DNA could by observed. […] The m-Amsacrine (AMSA) (lane 2) was the observed band for catenated DNA.
Figure 12 The result of Topo I/IIα activity tests in the presence of derivatives 3a–3d. (A) Electrophoretogram for inhibition relaxation activity of hTopo I (2.5 U) by derivatives 3a–3d in concentrations of 25, 50 and 100 μM (lane 5–16), substrate-free SC pBR322 (0.5 μg) (lane 4), camptothecin (CPT, lane 2) and plasmid+hTopo I control (lane 3). (NOC—nicked-opened DNA form; R—relaxed DNA form; SC—supercoiled DNA form). (B) Electrophoretogram for inhibition decatenation activity of hTopo IIα (0.5 U) by derivatives 3a–3d in concentrations of 25, 50 and 100 μM (lane 5–16), substrate-free catenated kinetoplast DNA (cat kDNA) (0.5 μg) (lane 4), m-Amsacrine (AMSA, lane 2) and plasmid +hTopo IIα control (lane 3). (decat DNA—decatenated DNA; NC—nicked circular DNA form; L—linear DNA form).

SMILES | melting point | Kq, bimolecular quenching rate constant ([1]; 25 °C) | n, number of binding sites ([1]; 25 °C) | ΔG ([1]; 25 °C) | KSV, Stern–Volmer quenching constant ([1]; 25 °C) | Kq, bimolecular quenching rate constant ([1]; 30 °C) | n, number of binding sites ([1]; 30 °C) | ΔG ([1]; 30 °C) | KSV, Stern–Volmer quenching constant ([1]; 30 °C) | Kq, bimolecular quenching rate constant ([1]; 35 °C) | n, number of binding sites ([1]; 35 °C) | ΔG ([1]; 35 °C) | KSV, Stern–Volmer quenching constant ([1]; 35 °C) | ΔH [1] | ΔS [1] | KSV for the HSA-3a complex ([1]; without site marker) | Kb for the HSA-3a complex ([1]; without site marker) | blue shift of HSA fluorescence emission maximum [1] | inhibition of decatenation activity of Topo IIα [2]
O=C(N/N=C/c1cccc2cc3ccccc3nc12)c1ccccc1 [3a, N′-[(E)-(Acridin-4-yl)methylidene]benzohydrazide] | 235 to 236 °C | 2.67e+13 M⁻¹ s⁻¹ | 1.068 | -7.918 kcal/mol | 267000 M⁻¹ | 2.68e+13 M⁻¹ s⁻¹ | 1.054 | -7.878 kcal/mol | 268000 M⁻¹ | 2.61e+13 M⁻¹ s⁻¹ | 1.023 | -7.837 kcal/mol | 261000 M⁻¹ | -10.33 kcal/mol | −33.80 ×10^−3 kJ mol^−1 K^−1 | 267000 M⁻¹ | 610000 M⁻¹ | 8 nm | No obvious inhibitory effects
O=C(N/N=C/c1cccc2cc3ccccc3nc12)c1ccc(Br)cc1 [3d, N′-[(E)-Acridin-4-ylmethylidene]-4-bromobenzohydrazide] | 269 to 270 °C | 1.16e+13 M⁻¹ s⁻¹ | 1.052 | -7.249 kcal/mol | 116000 M⁻¹ | 2.06e+13 M⁻¹ s⁻¹ | 0.917 | -6.828 kcal/mol | 206000 M⁻¹ | 2.42e+13 M⁻¹ s⁻¹ | 0.846 | -6.408 kcal/mol | 242000 M⁻¹ | -32.361 kcal/mol | −352.39 ×10^−3 kJ mol^−1 K^−1 |  |  | 6 nm | partial inhibition
O=C(N/N=C/c1cccc2cc3ccccc3nc12)c1ccc(F)cc1 [3b, N′-[(E)-Acridin-4-ylmethylidene]-4-fluorobenzohydrazide] | 229 to 230 °C | 1.51e+13 M⁻¹ s⁻¹ | 1.079 | -7.66 kcal/mol | 151000 M⁻¹ | 1.57e+13 M⁻¹ s⁻¹ | 1.061 | -7.61 kcal/mol | 157000 M⁻¹ | 1.37e+13 M⁻¹ s⁻¹ | 1.039 | -7.557 kcal/mol | 137000 M⁻¹ | -10.74 kcal/mol | −43.24 ×10^−3 kJ mol^−1 K^−1 |  |  | ~6 nm | No obvious inhibitory effects
O=C(N/N=C/c1cccc2cc3ccccc3nc12)c1ccc(Cl)cc1 [3c, N′-[(E)-Acridin-4-ylmethylidene]-4-chlorobenzohydrazide] | 266 to 267 °C | 2.29e+13 M⁻¹ s⁻¹ | 0.888 | -6.427 kcal/mol | 229000 M⁻¹ | 2.48e+13 M⁻¹ s⁻¹ | 0.925 | -7.108 kcal/mol | 248000 M⁻¹ | 2.62e+13 M⁻¹ s⁻¹ | 1.030 | -7.787 kcal/mol | 262000 M⁻¹ | 34.07 kcal/mol | 568.32 ×10^−3 kJ mol^−1 K^−1 |  |  | 7 nm | partial inhibition
